# Measured values from patent US9174992B2, “Heterobicyclic compounds” (Amgen Inc., priority 2012, dated 2015).
# “And” between values parts separate entries of the source, which are not always exact repeats. Equal entries are not always repeated.
# Target: PDE10A (UniProt Q9Y233)
# Assay: PDE10 enzyme inhibition, IMAP TR-FRET assay (Example A, MPDE10A7 Enzyme Activity and Inhibition)
# Type: biochemical
# Conditions: approximate IC50 value, Table 10
# How it was run: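 Compounds were preincubated 60 min at room temperature with PDE10A enzyme or tissue homogenate, then fluorescein-labeled cAMP or cGMP was added for 90 min. After stopping with IMAP binding reagents, TR-FRET was read and IC50s were fitted with a four-parameter logistic equation.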
row,Compound,IC50
1,"COc1nc2cccnc2n1[C@H]1C[C@H](Nc2ncc3ccc(Cl)cc3n2)C1 [Example 28, 7-Chloro-N-(trans-3-(2-methoxy-3H-imidazo[4,5-b]pyridin-3-yl)cyclobutyl)quinazolin-2-amine]",77.9 nM
2,"COc1nc2cccnc2n1C1CCC(Nc2nc3ccccc3[nH]2)CC1 (stereo not drawn) [Example 133, N-(4-(2-methoxy-3H-imidazo[4,5-b]pyridin-3-yl)cyclohexyl)-1H-benzo[d]imidazol-2-amine]",0.505 nM
3,Cn1c(=O)n([C@H]2C[C@@H](Nc3nc4ccccc4s3)C2)c2ncccc21 [Example 138],4.74 nM and 2.62 nM
4,"Cn1c(N[C@H]2C[C@H](N3C(=O)C(C)(C)c4nccnc43)C2)nc2ccccc21 [Example 161, 7,7-dimethyl-5-(trans-3-((1-methyl-1H-benzo[d]imidazol-2-yl)amino)cyclobutyl)-5H-pyrrolo-[2,3-b]pyrazin-6(7 H)-one]",2.73 nM
5,"CCc1nc2cccnc2n1[C@H]1C[C@H](Nc2nc3ccccc3s2)C1 [Example 1, N-(trans-3-(2-ethyl-3H-imidazo[4,5-b]pyridin-3-yl)cyclobutyl)benzo[d]thiazol-2-amine]",0.113 nM
6,"c1cnc2sc(N[C@H]3C[C@H](n4c(C5CC5)nc5cccnc54)C3)nc2c1 [Example 4, N-(trans-3-(2-cyclopropyl-3H-imidazo[4,5-b]pyridin-3-yl)cyclobutyl)thiazolo[5,4-b]pyridin-2-amine]",0.67 nM
7,"O=c1[nH]c2cccnc2n1[C@H]1C[C@H](Nc2ncc3ccc(F)cc3n2)C1 [Example 109, 3-(trans-3-((7-fluoroquinazolin-2-yl)amino)cyclobutyl)-1H-imidazo[4,5-b]pyridin-2(3H)-one]",339 nM
8,O=c1oc2cccnc2n1[C@H]1C[C@H](Nc2nc3ccccc3s2)C1 [Example 100],10.3 nM
9,"(R)-1-(trans-3-(benzo[d]thiazol-2-ylamino)cyclobutyl)-3-hydroxy-3-methyl-1H-pyrrolo[2,3-b]pyridin-2(3H)-one and (S)-1-(trans-3-(benzo[d]thiazol-2-ylamino)cyclobutyl)-3-hydroxy-3-methyl-1H-pyrrolo[2,3-b]pyridin-2(3H)-one [Example 181]",2.86 nM
10,"CC1(C)C(=O)N(C2CCN(c3nc4ccc(F)cc4s3)CC2)c2ncccc21 [Example 191, 1-(1-(6-fluorobenzo[d]thiazol-2-yl)piperidin-4-yl)-3,3-dimethyl-1H-pyrrolo[2,3-b]pyridin-2(3 H)-one]",3.46 nM
11,"CC1(C)C(=O)N([C@H]2C[C@H](Nc3nc4ccccc4s3)C2)c2ncncc21 [Example 147, 7-(trans-3-(benzo[d]thiazol-2-ylamino)cyclobutyl)-5,5-dimethyl-5H-pyrrolo[2,3-d]pyrimidin-6(7H)-one]",0.0406 nM
12,"CNC(=O)c1ccc(N[C@H]2C[C@H](N3C(=O)C(C)(C)c4cccnc43)C2)nc1 [Example 29, 6-((trans-3-(3,3-dimethyl-2-oxo-2,3-dihydro-1H-pyrrolo[2,3-b]pyridin-1-yl)cyclobutyl)amino)-N-methylnicotinamide]",76.7 nM
13,"C=C(C)c1cnc(NC2CC(N3C(=O)C(C)(C)c4cccnc43)C2)nc1 (stereo not drawn) [Example 80, 3,3-dimethyl-1-(−3-((5-(prop-1-en-2-yl)pyrimidin-2-yl)amino)cyclobutyl)-1H-pyrrolo[2,3-b]pyridin-2(3H)-one]",1.43 nM
14,"COc1nc2cccnc2n1C1CN(c2ccc3ccccc3n2)C1 [Example 126, 2-(3-(2-methoxy-3H-imidazo[4,5-b]pyridin-3-yl)azetidin-1-yl)quinoline]",0.13 nM
15,"COc1nc2cccnc2n1C1CCN(C(=O)c2nc3ccccc3s2)CC1 [Example 124, Benzo[d]thiazol-2-yl(4-(2-methoxy-3H-imidazo[4,5-b]pyridine-3-yl)piperidin-1-yl)methanone]",2.64 nM
16,"COc1nc2cccnc2n1C1CCC(Nc2nc3ccccc3[nH]2)CC1 (stereo not drawn) [Example 134, N-(4-(2-methoxy-3H-imidazo[4,5-b]pyridin-3-yl)cyclohexyl)-1H-benzimidazol-2-amine]",1.04 nM
17,"CC(=O)c1ccc(N[C@H]2C[C@H](N3C(=O)C(C)(C)c4nccnc43)C2)nc1 [Example 84, 5-(trans-3-((5-acetylpyridin-2-yl)amino)cyclobutyl)-7,7-dimethyl-5H-pyrrolo[2,3-b]pyrazin-6(7H)-one]",23.1 nM
18,"CC1(C)C(=O)N([C@H]2C[C@H](Nc3ccc(Cl)cn3)C2)c2ncccc21 [Example 42, 1-(Trans-3-((5-chloropyridin-2-yl)amino)cyclobutyl)-3,3-dimethyl-1H-pyrrolo[2,3-b]pyridin-2(3H)-one]",0.856 nM
19,"O=c1[nH]c2cccnc2n1[C@H]1CC[C@H](Nc2ncc3ccccc3n2)CC1 [Example 110, 3-(trans-4-(quinazolin-2-ylamino)cyclohexyl)-1H-imidazo[4,5-b]pyridin-2(3H)-one]",461 nM
20,"CC(=O)Nc1ccc(N[C@H]2C[C@H](N3C(=O)C(C)(C)c4cccnc43)C2)nc1 [Example 56, N-(6-((Trans-3-(3,3-dimethyl-2-oxo-2,3-dihydro-1H-pyrrolo[2,3-b]pyridine-1-yl)cyclobutyl)amino)pyridine-3-yl)acetamide]",8.42 nM
21,"CC1(C)C(=O)N([C@H]2C[C@H](Nc3nc4ccc(F)cc4s3)C2)c2ncncc21 [Example 157, 7-(trans-3-((6-fluorobenzo[d]thiazol-2-yl)amino)cyclobutyl)-5,5-dimethyl-5H-pyrrolo[2,3-d]pyrimidin-6(7H)-one]",4.45 nM
22,"COc1ccc2ccc(N[C@H]3C[C@H](n4c(=O)[nH]c5cccnc54)C3)nc2c1 [Example 105, 3-(trans-3-((7-methoxyquinolin-2-yl)amino)cyclobutyl)-1H-imidazo[4,5-b]pyridin-2(3H)-one]",35.5 nM

# Next, values leading:
row,IC50,Compound
1,35.7 nM,"COc1nc2cccnc2n1[C@H]1C[C@H](Nc2cnc3ccc(Cl)cc3n2)C1 [Example 19, 7-chloro-N-(trans-3-(2-methoxy-3H-imidazo[4,5-b]pyridin-3-yl)cyclobutyl)quinoxalin-2-amine]"
2,6.15 nM,"CC1(C)C(=O)N([C@H]2C[C@H](Nc3ncc(C4CC4)cn3)C2)c2ncccc21 [Example 79, 1-(trans-3-((5-cyclopropylpyrimidin-2-yl)amino)cyclobutyl)-3,3-dimethyl-1H-pyrrolo[2,3-b]pyridin-2(3H)-one]"
3,18.4 nM,"CC1(C)C(=O)N([C@H]2C[C@H](Nc3ncc4ccc(F)cc4n3)C2)c2nccnc21 [Example 175, 5-(trans-3-((7-fluoroquinazolin-2-yl)amino)cyclobutyl)-7,7-dimethyl-5H-pyrrolo[2,3-b]lpyrazin-6(7 H)-one]"
4,1.26 nM,"CC1(C)C(=O)N([C@H]2C[C@@H](Nc3nc4ccccc4s3)C2)c2ncccc21 [Example 81, 1-(Cis-3-(benzo[d]thiazol-2-ylamino)cyclobutyl)-3,3-dimethyl-1H-pyrrolo[2,3-b]pyridin-2(3H)-one]"
5,1.69 nM,"O=C(c1nc2ccccc2s1)N1CC(N2C(=O)C3(CC3)c3cccnc32)C1 [Example 118, 1′-(1-(benzo[d]thiazole-2-carbonyl)azetidin-3-yl)spiro[cyclopropane-1,3′-pyrrolo[2,3-b]pyridin-]-2′(1′H)-one]"
6,0.0402 nM,"CC1(C)C(=O)N([C@H]2C[C@H](Nc3nc4ccc(F)cc4s3)C2)c2ncccc21 [Example 32, 1-(trans-3-((6-fluorobenzo[d]thiazol-2-yl)amino)cyclobutyl)-3,3-dimethyl-1H-pyrrolo[2,3-b]pyridin-2(3H)-one]"
7,14.8 nM,CC1(C)C(=O)N([C@H]2C[C@H](Nc3ccc4cc(F)ccc4n3)C2)c2nccnc21 [Example 192]
8,1.49 nM,"CC1(C)C(=O)N([C@H]2C[C@H](Nc3nc4cccnc4s3)C2)c2nccnc21 [Example 173, 7,7-dimethyl-5-(trans-3-(thiazolo[5,4-b]pyridin-2-ylamino)cyclobutyl)-5H-pyrrolo[2,3-b]pyrazin-6(7H)-one]"
9,28.4 nM,"Clc1ccc2ncc(N[C@H]3C[C@H](n4c(C5CCOCC5)nc5cccnc54)C3)nc2c1 [Example 17, 7-Chloro-N-(trans-3-(2-(tetrahydro-2H-pyran-4-yl)-3H-imidazo[4,5-b]pyridin-3-yl)cyclobutyl)quinoxalin-2-amine]"
10,1.87 nM,"O=c1n(C2CC2)c2nccnc2n1[C@H]1CC[C@H](Nc2ccc3ncccc3n2)CC1 [Example 227, 1-(trans-4-((1,5-naphthyridin-2-yl)amino)cyclohexyl)-3-cyclopropyl-1H-imidazo[4,5-b]pyrazin-2(3H)-one]"
11,0.388 nM,"O=c1n(C2CC2)c2nccnc2n1[C@H]1C[C@H](Nc2nc3ccccc3s2)C1 [Example 90, 1-(trans-3-(benzo[d]thiazol-2-ylamino)cyclobutyl)-3-cyclopropyl-1H-imidazo[4,5-b]pyrazin-2(3H)-one]"
12,4.82 nM,O=c1[nH]c2cccnc2n1[C@H]1C[C@H](Nc2nc3c(F)cccc3s2)C1 [Example 98]
13,1.77 nM,"CC1(C)C(=O)N([C@H]2C[C@H](Oc3nc4ccccc4s3)C2)c2nccnc21 [Example 197, 5-(trans-3-(benzo[d]thiazol-2-yloxy)cyclobutyl)-7,7-dimethyl-5H-pyrrolo[2,3-b]pyrazin-6(7H)-one]"
14,4.82 nM,"FC(F)(F)c1nc2cccnc2n1[C@H]1C[C@H](Nc2nc3ccccc3s2)C1 [Example 10, N-(trans-3-(2-(trifluoromethyl)-3H-imidazo[4,5-b]pyridin-3-yl)cyclobutyl)benzo[d]thiazol-2-amine]"
15,109 nM,"Cc1csc(N[C@H]2C[C@H](N3C(=O)C(C)(C)c4cccnc43)C2)n1 [Example 203, 3,3-dimethyl-1-(trans-3-((4-methylthiazol-2-yl)amino)cyclobutyl)-1H-pyrrolo[2,3-b]pyridin-2(3H)-one]"
16,0.0254 nM,"O=c1n(C2CC2)c2cccnc2n1[C@H]1C[C@H](Nc2nc3ccccc3s2)C1 [Example 85, 3-(trans-3-(benzo[d]thiazol-2-ylamino)cyclobutyl)-1-cyclopropyl-1H-imidazo[4,5-b]pyridin-2(3H)-one]"
17,11 nM,CC1(C)C(=O)N([C@H]2C[C@H](Nc3ncccc3Cl)C2)c2ncccc21 [Example 57]
